The results in this text go back to PubChem BioAssay AID743434 (The Scripps Research Institute Molecular Screening Center, 2014).

The structures appear in SMILES notation. Active and inactive are the calls of the source. How the calls were made is not given here.

The target of this assay is Sphingosine 1-phosphate receptor 3 (Homo sapiens) (UniProt Q99500). In words: S1P3 receptor antagonists, late-stage follow-up, cell-based, fluorescence, dose response (AID 743434). As to conditions: S1P3-expressing cells, fluorescence antagonist assay.
Sequence of Sphingosine 1-phosphate receptor 3 (Homo sapiens) (Q99500 whole entry, looked up): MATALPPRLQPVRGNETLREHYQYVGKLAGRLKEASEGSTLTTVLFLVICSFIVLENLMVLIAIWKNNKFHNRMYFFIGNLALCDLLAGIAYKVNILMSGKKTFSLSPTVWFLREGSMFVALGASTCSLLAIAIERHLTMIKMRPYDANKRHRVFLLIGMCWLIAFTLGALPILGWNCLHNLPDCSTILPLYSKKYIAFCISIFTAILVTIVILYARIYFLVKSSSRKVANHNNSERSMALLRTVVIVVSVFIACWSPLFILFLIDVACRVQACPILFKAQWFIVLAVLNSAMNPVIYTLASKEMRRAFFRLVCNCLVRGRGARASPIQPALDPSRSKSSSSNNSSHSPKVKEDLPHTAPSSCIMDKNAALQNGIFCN
As a reminder, the IC50 is the midpoint of a concentration-inhibition curve. On to `O=C(NC(c1ccc(Cl)c(Cl)c1)c1nc(-c2ccccc2)no1)c1cccc(Cl)c1` (stereo not drawn), for which the IC50 was 53 nM. Take `COc1ccc(C(=O)NC(c2ccccc2)c2nc(-c3ccccc3)no2)cc1` (stereo not drawn): the IC50 result is “inactive”. Regarding `O=C(NC(c1ccc(Cl)cc1)c1nc(-c2ccccc2)no1)c1ccc(Cl)c(Br)c1` (stereo not drawn), the IC50 is 390 nM. Regarding `O=C(NC(c1ccc(Cl)cc1)c1nc(-c2ccccc2)no1)c1cccc(Cl)c1` (stereo not drawn), the IC50 was 214 nM. For `O=C(NC(c1ccc(Br)cc1)c1nc(-c2ccccc2)no1)c1ccc(Cl)c(Cl)c1` (stereo not drawn) the value was 214 nM. Then `O=C(NC(c1ccc(Cl)cc1)c1nc(-c2ccccn2)no1)c1cccc(Cl)c1` (stereo not drawn), with 2900 nM; and `O=C(NC(c1nc(-c2ccccc2)no1)C1CCCCC1)c1ccc(Cl)c(Cl)c1` (stereo not drawn), with 3300 nM; and `N#Cc1ccc(C(=O)NC(c2ccc(Cl)c(Cl)c2)c2nc(-c3ccccc3)no2)cc1` (stereo not drawn), with 320 nM. Consider `O=C(NC(c1ccc(Cl)c(Cl)c1)c1nc(-c2ccccc2)no1)c1ccc(Cl)cc1` (stereo not drawn), for which the IC50 was 76 nM.

On to `Cc1ccc(C(=O)NC(c2ccccc2)c2nc(-c3ccccc3)no2)cc1` (stereo not drawn), for which the IC50 result is “inactive”. Regarding `O=C(NC(c1cccc(Cl)c1)c1nc(-c2ccccc2)no1)c1cc(Cl)cc(Cl)c1` (stereo not drawn), the IC50 was 33 nM. For `O=C(NC(c1ccc(Cl)c(Cl)c1)c1nc(-c2ccccc2)no1)c1ccc(Cl)c(Cl)c1` (stereo not drawn) the value was 66 nM. With `O=C(NC(c1ccccc1)c1nc(-c2ccccc2)no1)c1cccc(Cl)n1` (stereo not drawn), the IC50 is 2800 nM. As to `O=C(NC(Cc1ccccc1)c1nc(-c2ccccc2)no1)c1cccc(Cl)c1` (stereo not drawn), the IC50 is 5700 nM. Take `O=C(NC(c1ccccc1)c1nc(-c2ccccc2)no1)c1ccc(Cl)cc1` (stereo not drawn): the IC50 was 2400 nM. Take `O=C(NC(c1nc(-c2ccccc2)no1)C1CCOCC1)c1ccc(Cl)c(Cl)c1` (stereo not drawn): the IC50 is 2800 nM. As for `O=C(c1cccc(Cl)c1)N(CCO)C(c1ccc(Cl)c(Cl)c1)c1nc(-c2ccccc2)no1` (stereo not drawn), the IC50 entry is “inactive”. `O=C(NC(c1ccc(Cl)cc1)c1nc(-c2cccc(Cl)c2)no1)c1cccc(Cl)c1` (stereo not drawn): the IC50 is 1100 nM.
